This is an account of results in ChEMBL document CHEMBL1629703, “Novel hepatitis C virus reporter replicon cell lines enable efficient antiviral screening against genotype 1a” (Antimicrob Agents Chemother, 2010).

Test [1] relates to Hepatitis C virus. In words: Antiviral activity against Hepatitis C virus genotype 1b in luciferase encoding genotype 1b replicons after 3 days by luciferase reporter assay. Type of test: functional, organism-based, Hepacivirus hominis. As to conditions: 72 h. In general terms: In antiviral work, replicon cells carry a viral genome segment that copies itself.
Test [2] concerns Hepatitis C virus. In words: Antiviral activity against Hepatitis C virus genotype 1a in luciferase encoding genotype 1a replicons after 3 days by luciferase reporter assay. The test is classed as functional, organism-based, Hepacivirus hominis. As to conditions: subtype 1a, 72 h.

As a reminder, the EC50 is the concentration that produces a half-maximal response. In the case of `CCC[C@H](NC(=O)[C@@H]1[C@H]2CCC[C@H]2CN1C(=O)[C@@H](NC(=O)[C@@H](NC(=O)c1cnccn1)C1CCCCC1)C(C)(C)C)C(=O)C(=O)NC1CC1` [TELAPREVIR], the EC50 in test [1] worked out at 1690 nM; in test [2], 1250 nM.
In the same order, the values of `C[C@@]1(O)[C@H](O)[C@@H](CO)O[C@H]1n1cnc2c(N)ncnc21` are 618 nM and 733 nM.
Consider `CNC(=O)c1c(-c2ccc(F)cc2)oc2cc(N(CCO)S(C)(=O)=O)c(C3CC3)cc12` [NESBUVIR], for which the EC50 was 22 nM in test [1] and 45 nM in test [2].
Regarding `COc1ccc2c(O[C@@H]3C[C@H]4C(=O)N[C@]5(C(=O)O)C[C@H]5/C=C\CCCCC[C@H](NC(=O)OC5CCCC5)C(=O)N4C3)cc(-c3csc(NC(C)C)n3)nc2c1` [CILUPREVIR], in test [2], the response was half-maximal at 17 nM (EC50).
